Data published in patent US20070015840A1, “Use of an alkyl ether of hydroxystilbene for the treatment of dry skin” (L'OREAL, priority 2002, published 2007).

Test system: immortalized human sebocytes derived from the SZ95 line
Assay: Lipogenesis in immortalized human sebocytes in culture (SZ95 line), Nile Red fluorescence, total lipids
Type: cell-based
Details: for VARIATION IN LIPIDS (relative to the control): 0.1% DMSO, 24 hours treatment, total lipids, Nile Red
Experimental: Resveratrol trimethyl ether was tested on a model of immortalized human sebocytes in culture, derived from the SZ95 line described in Zouboulis, C. C., Seltmann, H., Neitzel, H. & Orfanos, C. E., Establishment and Characterization of an Immortalized Human Sebaceous Gland Cell Line, J. Invest. Dermatol., 113, 1011-1020 (1999).
The test consisted in measuring the amount of lipids produced by the sebocytes of the line (at confluence), in the presence or absence of an active agent diluted in DMSO, at two different concentrations, such that the final amount of DMSO in the culture medium is 0.1% and the amount of resveratrol trimethyl ether is 0.01% (4×10^−4 M) and 0.001% (4×10^−5 M), respectively. After treatment for 24 hours, the adherent cells are treated with Nile Red (1 μg/ml). The lipid content is then quantified by measuring the fluorescence of the dye (two excitation/emission pairs: 485-540 nm for the neutral lipids and 540-620 nm for the non-neutral lipids). The results are given for the total lipids (combination of the two measurements).
The experiment is performed in sextuplicate (products assayed and control) in 96-well plates and repeated four times.

SMILES | inhibition of lipogenesis (0.001%, same conditions as resveratrol trimethyl ether (second of 'respectively')) | inhibition of lipogenesis (0.01%, same conditions as resveratrol trimethyl ether (first of 'respectively')) | ability of sebocytes to produce sebum (qualitative statement in the description) | VARIATION IN LIPIDS (relative to the control) (0.001% (4×10^−5 M) compound) | VARIATION IN LIPIDS (relative to the control) (0.01% (4×10^−4 M) compound)
Oc1ccc(C=Cc2cc(O)cc(O)c2)cc1 [resveratrol] | 67% | 20% | decreased |  | 
COc1ccc(C=Cc2cc(OC)cc(OC)c2)cc1 [resveratrol trimethyl ether, Resveratrol trimethyl ether] |  |  |  | +36% | +46%
